Measured values published in ChEMBL document CHEMBL5528048, “Discovery of Novel Potent and Fast BTK PROTACs for the Treatment of Osteoclasts-Related Inflammatory Diseases” (J Med Chem, 2024).
The source made the active and inactive calls. The rule behind the calls is not given here.

Experiments:
[1] = target: T1, Protein cereblon/Tyrosine-protein kinase BTK (Homo sapiens, UniProt Q06187+Q96SW2); assay: PROTAC activity at BTK/CRBN in human MINO cells assessed as BTK protein degradation half life at 20 nM by Western blotting analysis; type: cell-based
Target sequence in this assay (Q06187 2-659 limits assumed): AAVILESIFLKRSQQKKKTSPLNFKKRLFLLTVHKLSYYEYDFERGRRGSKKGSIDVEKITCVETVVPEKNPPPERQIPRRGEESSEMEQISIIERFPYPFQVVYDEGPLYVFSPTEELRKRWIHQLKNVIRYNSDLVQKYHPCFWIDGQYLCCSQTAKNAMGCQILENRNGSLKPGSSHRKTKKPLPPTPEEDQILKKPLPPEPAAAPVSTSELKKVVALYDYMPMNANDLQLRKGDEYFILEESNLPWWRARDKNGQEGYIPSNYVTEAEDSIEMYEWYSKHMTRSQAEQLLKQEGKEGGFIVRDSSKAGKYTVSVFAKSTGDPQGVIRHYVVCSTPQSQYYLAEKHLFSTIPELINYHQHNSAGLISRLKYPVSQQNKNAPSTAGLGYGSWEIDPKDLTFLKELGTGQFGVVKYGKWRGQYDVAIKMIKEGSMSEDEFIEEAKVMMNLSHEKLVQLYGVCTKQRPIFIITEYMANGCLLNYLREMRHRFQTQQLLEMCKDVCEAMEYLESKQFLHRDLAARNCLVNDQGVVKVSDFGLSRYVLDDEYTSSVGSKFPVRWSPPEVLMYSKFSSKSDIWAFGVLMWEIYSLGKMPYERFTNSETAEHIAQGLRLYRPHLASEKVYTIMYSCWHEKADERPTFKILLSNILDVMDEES
Target sequence in this assay (Q96SW2 whole entry partner): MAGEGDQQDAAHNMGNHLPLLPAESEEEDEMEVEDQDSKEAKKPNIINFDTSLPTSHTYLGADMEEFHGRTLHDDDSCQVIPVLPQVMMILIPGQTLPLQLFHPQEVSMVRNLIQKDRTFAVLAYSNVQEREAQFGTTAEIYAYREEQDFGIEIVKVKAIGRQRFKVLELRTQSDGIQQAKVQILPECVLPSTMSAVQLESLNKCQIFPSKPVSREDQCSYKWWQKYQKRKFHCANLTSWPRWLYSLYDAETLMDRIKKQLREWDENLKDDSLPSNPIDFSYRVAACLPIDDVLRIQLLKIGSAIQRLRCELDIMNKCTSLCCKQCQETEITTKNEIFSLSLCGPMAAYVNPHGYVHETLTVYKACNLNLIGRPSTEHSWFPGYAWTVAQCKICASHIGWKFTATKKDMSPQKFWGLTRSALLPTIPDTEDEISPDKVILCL

[2] = Apparent volume of distribution in Sprague-Dawley rat at 4 mg/kg, ip measured upto 48 hrs; type: ADME, organism-based; details: in vivo
[3] = target: T1, Protein cereblon/Tyrosine-protein kinase BTK; assay: PROTAC activity at BTK/CRBN in human MINO cells assessed as BTK protein degradation by measuring onset time activity at 20 nM by Western blotting analysis; type: cell-based
Target sequence in this assay (Q06187 2-659 limits assumed): as the sequence (Q06187 2-659 limits assumed) above
Target sequence in this assay (Q96SW2 whole entry partner): as the sequence (Q96SW2 whole entry partner) above

[4] = target: T1, Protein cereblon/Tyrosine-protein kinase BTK; assay: PROTAC activity at BTK/CRBN in human MINO cells assessed as BTK protein degradation at 20 nM by Western blotting analysis; type: cell-based; details: time lower 2.0 hrs, time upper […], TDE = time-dependent effect
Target sequence in this assay (Q06187 2-659 limits assumed): as the sequence (Q06187 2-659 limits assumed) above
Target sequence in this assay (Q96SW2 whole entry partner): as the sequence (Q96SW2 whole entry partner) above

[5] = system: Mus musculus; assay: Antiosteoclastogenic effects in LPS-soaked ligature-induced C57BL/6J mouse periodontal disease model assessed as reduction in periodontal alveolar bone loss at 30 mg/kg, ip treated on day 0, 1,4, 7 and measured on day 10 by Micro-CT 3D scan; type: functional, organism-based; details: time 7.0 day
[6] = target: T1, Protein cereblon/Tyrosine-protein kinase BTK; assay: PROTAC activity at BTK/CRBN in human MINO cells assessed as BTK protein degradation pretreated with 2 uM pomalidomide followed by 1 hr treated at 20 nM measured after 48 hrs by Western blotting analysis; type: cell-based; details: dose […]
Target sequence in this assay (Q06187 2-659 limits assumed): as the sequence (Q06187 2-659 limits assumed) above
Target sequence in this assay (Q96SW2 whole entry partner): as the sequence (Q96SW2 whole entry partner) above

[7] = target: T1, Protein cereblon/Tyrosine-protein kinase BTK; assay: PROTAC activity at BTK/CRBN in human MINO cells assessed as BTK protein degradation pretreated with 2 uM MG132 followed by 1 hr treated at 20 nM measured after 48 hrs by Western blotting analysis; type: cell-based; details: dose […]
Target sequence in this assay (Q06187 2-659 limits assumed): as the sequence (Q06187 2-659 limits assumed) above
Target sequence in this assay (Q96SW2 whole entry partner): as the sequence (Q96SW2 whole entry partner) above

[8] = target: T2, Protein cereblon/Tyrosine-protein kinase BTK (Mus musculus) (UniProt P35991+Q8C7D2); assay: PROTAC activity at BTK/CRBN in mCSF/RANKL-stimulated C57BL/6J mouse BMDM assessed as reduction in phosphorylated BTK protein level at 25 to 100 nM followed by stimulated with mCSF/RANKL measured after 2 hrs by Western blotting analysis; type: cell-based; details: dose 25-100 nM
[9] = target: T1, Protein cereblon/Tyrosine-protein kinase BTK; assay: Binding affinity to BTK/CRBN (unknown origin) assessed as ternary complex formation measured after 60 mins incubation by HTRF assay
Target sequence in this assay (Q06187 whole entry): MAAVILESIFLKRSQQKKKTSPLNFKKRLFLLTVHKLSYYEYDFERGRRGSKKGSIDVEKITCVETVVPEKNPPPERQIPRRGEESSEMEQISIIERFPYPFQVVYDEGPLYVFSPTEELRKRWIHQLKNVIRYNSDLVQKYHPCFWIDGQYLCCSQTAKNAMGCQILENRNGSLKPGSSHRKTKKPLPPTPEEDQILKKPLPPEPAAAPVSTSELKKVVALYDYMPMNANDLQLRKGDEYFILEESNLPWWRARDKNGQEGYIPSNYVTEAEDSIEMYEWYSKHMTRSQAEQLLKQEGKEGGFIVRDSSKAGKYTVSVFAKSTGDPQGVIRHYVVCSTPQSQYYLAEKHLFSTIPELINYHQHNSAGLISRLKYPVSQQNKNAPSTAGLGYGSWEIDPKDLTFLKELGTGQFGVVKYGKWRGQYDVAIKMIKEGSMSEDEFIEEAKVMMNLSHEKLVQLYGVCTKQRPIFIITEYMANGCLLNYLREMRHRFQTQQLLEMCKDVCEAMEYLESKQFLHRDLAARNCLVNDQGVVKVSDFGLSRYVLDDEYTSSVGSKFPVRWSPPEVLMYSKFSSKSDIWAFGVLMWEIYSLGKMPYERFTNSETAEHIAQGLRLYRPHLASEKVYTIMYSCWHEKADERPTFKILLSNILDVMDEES
Target sequence in this assay (Q96SW2 whole entry): as the sequence (Q96SW2 whole entry partner) above

[10] = target: T1, Protein cereblon/Tyrosine-protein kinase BTK; assay: PROTAC activity at BTK/CRBN in human MINO cells assessed as BTK protein degradation pretreated with 2 uM ibrutinib followed by 1 hr treated at 20 nM measured after 48 hrs by Western blotting analysis; type: cell-based; details: dose […]
Target sequence in this assay (Q06187 2-659 limits assumed): as the sequence (Q06187 2-659 limits assumed) above
Target sequence in this assay (Q96SW2 whole entry partner): as the sequence (Q96SW2 whole entry partner) above

[11] = Half life in Sprague-Dawley rat at 4 mg/kg, ip measured upto 48 hrs; type: ADME, organism-based; details: in vivo
[12] = system: Mus musculus; assay: Antiosteoclastogenic effects in LPS-soaked ligature-induced C57BL/6J mouse periodontal disease model assessed as reduction in periodontal alveolar bone loss by measuring distance between the cemento-enamel junction (CEJ) at 10 to 30 mg/kg, ip treated on day 0, 1,4, 7 and measured on day 10 by Micro-CT 3D scan; type: functional, organism-based; details: dose 10-30 mg/kg, time 7.0 day
[13] = Half life in Sprague-Dawley rat at 2 mg/kg, iv measured upto 48 hrs; type: ADME, organism-based; details: in vivo
[14] = target: T2, Protein cereblon/Tyrosine-protein kinase BTK (Mus musculus); assay: PROTAC activity at BTK/CRBN in C57BL/6J mouse BMM cells assessed as reduction in mCSF/RANKL-stimulated NFATc1 protein expression at 25 to 100 nM followed by stimulated with mCSF/RANKL measured after 2 hrs by Western blot analysis; type: cell-based; details: BMDM, dose 25-100 nM
[15] = system: Mus musculus; assay: Antiosteoclastogenic effects in LPS-soaked ligature-induced C57BL/6J mouse periodontal disease model assessed as reduction in periodontal alveolar bone loss by measuring increase in bone volume per tissue volume (BV/TV%) at 10 to 30 mg/kg, ip treated on day 0, 1,4, 7 and measured on day 10 by Micro-CT 3D scan; type: functional, organism-based; details: dose 10-30 mg/kg, time 7.0 day
[16] = system: BMMC; assay: Inhibition of RANKKL-induced upregulation of osteoclast related genes in C57BL/6J mouse BMM cells assessed as reduction in mCSF/RANKL-stimulated TRAP gene expression at 25 to 100 nM followed by stimulated with mCSF/RANKL measured after 2 hrs by qPCR analysis; type: functional, cell-based; details: dose 25-100 nM
[17] = target: Tyrosine-protein kinase BTK (Homo sapiens, UniProt Q06187); assay: Inhibition of BTK (unknown origin) measured after 60 mins incubation by microtiter-plate reader
[18] = system: BMMC; assay: Inhibition of RANKKL-induced upregulation of osteoclast related genes in C57BL/6J mouse BMM cells assessed as reduction in mCSF/RANKL-stimulated CTSK gene expression at 25 to 100 nM followed by stimulated with mCSF/RANKL measured after 2 hrs by qPCR analysis; type: functional, cell-based; details: dose 25-100 nM

T2 sequence (P35991 whole entry, looked up): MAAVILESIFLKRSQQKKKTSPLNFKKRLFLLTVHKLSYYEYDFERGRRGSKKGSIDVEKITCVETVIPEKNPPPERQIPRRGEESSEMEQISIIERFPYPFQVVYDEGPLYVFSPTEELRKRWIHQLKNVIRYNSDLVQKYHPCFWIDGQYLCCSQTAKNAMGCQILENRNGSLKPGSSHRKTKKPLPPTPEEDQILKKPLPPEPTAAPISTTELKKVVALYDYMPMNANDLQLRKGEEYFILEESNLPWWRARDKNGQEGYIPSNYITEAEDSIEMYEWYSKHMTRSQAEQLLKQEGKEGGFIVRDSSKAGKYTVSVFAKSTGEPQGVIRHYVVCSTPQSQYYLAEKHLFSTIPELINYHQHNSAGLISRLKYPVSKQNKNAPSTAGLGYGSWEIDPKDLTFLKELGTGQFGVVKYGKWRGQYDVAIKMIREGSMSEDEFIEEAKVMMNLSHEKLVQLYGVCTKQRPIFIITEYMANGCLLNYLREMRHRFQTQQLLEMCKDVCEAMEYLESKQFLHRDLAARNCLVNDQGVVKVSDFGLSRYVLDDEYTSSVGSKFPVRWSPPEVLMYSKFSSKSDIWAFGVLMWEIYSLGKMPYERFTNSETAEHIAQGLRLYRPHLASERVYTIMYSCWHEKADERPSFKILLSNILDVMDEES
T2 sequence (Q8C7D2 whole entry, looked up): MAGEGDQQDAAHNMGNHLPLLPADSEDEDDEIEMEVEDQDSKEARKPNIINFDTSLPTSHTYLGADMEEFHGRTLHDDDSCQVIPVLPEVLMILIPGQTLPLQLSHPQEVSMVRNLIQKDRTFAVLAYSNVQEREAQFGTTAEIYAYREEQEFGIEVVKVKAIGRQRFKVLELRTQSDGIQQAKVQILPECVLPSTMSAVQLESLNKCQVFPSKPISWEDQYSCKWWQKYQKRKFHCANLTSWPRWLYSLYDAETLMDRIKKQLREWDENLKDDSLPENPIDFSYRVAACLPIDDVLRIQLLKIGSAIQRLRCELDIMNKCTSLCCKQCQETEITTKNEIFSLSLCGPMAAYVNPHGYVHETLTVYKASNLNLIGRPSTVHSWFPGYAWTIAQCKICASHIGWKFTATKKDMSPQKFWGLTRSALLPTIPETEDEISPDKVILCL
Tyrosine-protein kinase BTK, sequence (Q06187 whole entry): as the sequence (Q06187 whole entry) above

T1/2 [1]: 0.59 h
Vz [2]: 30.04 L/kg
TIME [3]: < 0.5 h
Activity [4]: Tde
Activity [6]: inactive
Activity [7]: inactive
Activity [8]: Active
EC50 [9]: 0.00428 µM
Activity [10]: inactive
half-life [11]: 13.6 h
half-life [13]: 7.03 h
Activity [14]: Active
IC50 [17]: 0.299 µM
SMILES: Cc1cc(-c2nc(Nc3cnn(C4CCN(CC5CCN(c6ccc7c(c6)C(=O)N(C6CCC(=O)NC6=O)C7=O)CC5)CC4)c3)ncc2F)ccc1CNC(=O)c1cn(C(C)(C)C)nn1 (stereo not drawn)
Activity [5]: Active
Activity [12]: Active
Activity [15]: Active
inhibition [16]: Active
inhibition [18]: Active
